Laboratory results from patent US8222299B2, “Organosulfur prodrugs for the prevention and treatment of infectious diseases” (Allium Vitalis Incorporated, priority 2003, dated 2012).
“Also recorded” adds a separate entry of the source.

Key:
[1] = cited from earlier work; for Reaction in Blood Half-life / Reaction in Blood Product (moles): in vitro
[2] = Non-enzymatic reaction of AllylSH with H2O2; type: physicochemical
Text: Thiols are known to have various antioxidant properties, including the ability to scavenge (H2O2), although the specific ability of allyl mercaptan in this regard may not have been previously investigated.

[3] = compounds from Allium grayi Regel and Allium fistulosum; cited from earlier work
[4] = system: 13 types of bacteria; details: cited from earlier work
[5] = pKa and ionization; type: physicochemical; details: pH of approximately 7
[6] = system: prostaglandin synthase; details: 50 uM/L; cited from earlier work
[7] = molecular target: CYP2D6 (Homo sapiens, UniProt P10635); details: cited from earlier work
Sequence of CYP2D6 (P10635 whole entry): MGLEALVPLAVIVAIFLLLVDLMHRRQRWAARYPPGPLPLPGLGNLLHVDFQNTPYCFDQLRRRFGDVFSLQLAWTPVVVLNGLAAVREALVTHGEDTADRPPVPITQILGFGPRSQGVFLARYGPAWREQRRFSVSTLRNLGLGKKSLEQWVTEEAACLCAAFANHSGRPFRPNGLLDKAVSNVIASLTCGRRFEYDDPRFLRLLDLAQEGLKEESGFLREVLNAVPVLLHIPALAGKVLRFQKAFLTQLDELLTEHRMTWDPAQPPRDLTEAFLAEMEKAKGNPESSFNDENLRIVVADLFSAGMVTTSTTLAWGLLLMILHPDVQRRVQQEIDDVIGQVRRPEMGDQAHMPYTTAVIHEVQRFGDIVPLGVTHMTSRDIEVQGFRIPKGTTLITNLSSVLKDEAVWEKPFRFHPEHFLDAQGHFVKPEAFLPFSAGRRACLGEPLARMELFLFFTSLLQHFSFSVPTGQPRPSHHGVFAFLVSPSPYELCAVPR

[8] = cited from earlier work
[9] = system: Sendai virus; details: post treatment one hour after infection, measured 24 hours post infection; cited from earlier work
[10] = system: neutrophil influx; details: intravenous, 150 mg/kg; cited from earlier work
[11] = mice, cited from earlier work; for protection from acetaminophen poisoning, pretreatment: SAMC 100 mg/kg
[12] = system: uninfected cells; details: 0.01 mM
[13] = chemiluminescense assay; cited from earlier work
[14] = system: cells; details: in vitro exposure; cited from earlier work
[15] = system: SARS coronavirus; test: microbe, parasite or virus in culture; details: Severe acute respiratory syndrome coronavirus, read-out: reduction in the viability of infected cells

## C=CCS[S+]([O-])CC=C (stereo not shown) [Allicin, DiAllylThioSulfinate]
[1]; blood cells exposed to allicin
  time for metabolism to allyl-mercaptan: less than one minute
[1]
  Reaction in Blood Half-life: <1 min
  Reaction in Blood Product (moles): AllylSH (1.6)

## C=CCS [AllylSH, AllylThiol]
[2]; initial 10 mM H2O2 and 0.85 mM Allyl-SH, FIG. 1
  reaction with H2O2 at low concentration: can reduce hydrogen peroxide

## CCCS[S+]([O-])CCC (stereo not shown) [CH3(CH2)2S˜SO(CH2)2CH3]
[3]
  nematicidal activity: most effective compound found

## O=C(N[C@H](CO)[C@H](O)c1ccc([N+](=O)[O-])cc1)C(Cl)Cl [Chloramphenicol]
[4]; 13 types of bacteria
  species inhibited: 12/13
[4]
  average zone of inhibition: 20 mm

## N[C@@H](CS)C(=O)O [Cys, Cysteine]
[5]
  fraction ionized: approximately 3%

## C=CCSSCC=C [DADS, DiAllylDisulfide]
[2]; initial 40 mM H2O2 and 0.85 mM Allyl-SH, FIG. 2
  reaction with H2O2 at high concentration: further oxidized to Allicin
[6]
  inhibition of prostaglandin synthase: 69%
[1]
  Reaction in Blood Half-life: 60 min
  Reaction in Blood Product (moles): AllylSH (0.8)
[7]
  activity of the enzymes: up to 121 pmol/min/pmol CYP2D6
[7]; in 30 minutes
  conversion of DADS to allicin: approximately 30%
[8]
  water solubility in words: poor water solubility

## N[C@@H](CCC(=O)N[C@@H](CS)C(=O)NCC(=O)O)C(=O)O [Glutathione]
[9]
  reduction of the level of infection: 95%

## CC(=O)N[C@@H](CS)C(=O)O [NAC, N-acetylcysteine]
[10]
  IL-1 induced neutrophil influx into lung lavages: inhibited

## C=CCSC[C@H](N)C(=O)O [S-allylcysteine]
[11]
  protection from acetaminophen poisoning, pretreatment: not nearly as effective

## C=CCSSC[C@H](N)C(=O)O [SAMC, S-AllylMercaptoCysteine]
[12]
  toxicity to uninfected cells: no toxicity
[13]
  antioxidant or pro-oxidant activity: by far the most effective antioxidant
[14]
  total glutathione level of cells: significantly increase; also recorded: significant increase
[11]
  protection from acetaminophen poisoning, pretreatment: protect mice
[11]; single dose 200 mg/kg shortly after exposure
  protection from acetaminophen poisoning, post treatment: protective
[1]
  Reaction in Blood Product (moles): AllylSH (0.8)
[15]
  inhibition at 10 µM: 6%
